In patent US20080234262A1 (Wyeth, priority 2007, published 2008):

Each compound was assayed on breast line MDA468 (assay: In vitro cell culture growth assay (MTS), MDA468). Details: Homo sapiens, 72 h, MDA468 cells, three days after drug treatment.
Type: cell-based, human
Experimental: Human tumor cell lines used include prostate lines LNCap and PC3MM2, breast lines MDA468, MCF7, renal line HTB44 (A498), colon line HCT116, and ovarian line OVCAR3. Cells were plated in 96-well culture plates. One day following plating, the inhibitors were added to cells. Three days after drug treatment, viable cell densities were determined by metabolic conversion (by viable cells) of the dye MTS, a well established cell proliferation assay. The assays were performed using an assay kit purchased from Promega Corp. (Madison, Wis.) following the protocol supplied with the kit. The MTS assay results were read in a 96-well plate reader by measuring absorbance at 490 nm. The effect of each treatment was calculated as percent of control growth relative to the vehicle-treated cells grown in the same culture plate.

Row | SMILES | IC50 [nM]
1 | O=C(Nc1ccc(-c2nc(N3CCOCC3)c3cnn(C4CCN(Cc5ccccc5)CC4)c3n2)cc1)Nc1ncc[nH]1 [Example 326, 1-{4-[1-(1-benzylpiperidin-4-yl)-4-morpholin-4-yl-1H-pyrazolo[3,4-d]pyrimidin-6-yl]phenyl}-3-(1H-imidazol-2-yl)urea] | 3500
2 | COC(=O)N1CCC(n2ncc3c(N4CCOCC4)nc(-c4ccc(N)cc4)nc32)CC1 [Compound 741, methyl 4-[6-(4-aminophenyl)-4-morpholin-4-yl-1H-pyrazolo[3,4-d]pyrimidin-1-yl]piperidine-1-carboxylate] | 12000
3 | O=C(Nc1ccccc1)Nc1ccc(-c2nc(N3CCOCC3)c3cnn(C4CCN(Cc5ccccc5)CC4)c3n2)cc1 [Compound 503, 1-{4-[1-(1-benzylpiperidin-4-yl)-4-morpholin-4-yl-1H-pyrazolo[3,4-d]pyrimidin-6-yl]phenyl}-3-phenylurea] | 1050
4 | CC(C)OC(=O)N1CCC(n2ncc3c(N4CCOCC4)nc(-c4ccc(NC(=O)NC5CC5)cc4)nc32)CC1 [Compound 835, isopropyl 4-(6-{4-[(cyclopropylcarbamoyl)amino]phenyl}-4-morpholin-4-yl-1H-pyrazolo[3,4-d]pyrimidin-1-yl)piperidine-1-carboxylate] | 320
5 | CC(C)(C)OC(=O)N1CCC(n2ncc3c(N4CCOCC4)nc(-c4ccc(NC(=O)NCCF)cc4)nc32)CC1 [Compound 765, tert-butyl 4-[6-(4-{[(2-fluoroethyl)carbamoyl]amino}phenyl)-4-morpholin-4-yl-1H-pyrazolo[3,4-d]pyrimidin-1-yl]piperidine-1-carboxylate] | 360
6 | CNC(=O)Nc1ccc(-c2nc(N3CCOCC3)c3cnn(C4CCN(Cc5ccccc5)CC4)c3n2)cc1 [Example 206, N-{4-[1-(1-benzylpiperidin-4-yl)-4-morpholin-4-yl-1H-pyrazolo[3,4-d]pyrimidin-6-yl]phenyl}-N′-methylurea] | 100
7 | CNC(=O)Nc1ccc(-c2nc(N3CCOCC3)c3cnn(C4CCN(C(=O)OC(C)C)CC4)c3n2)cc1 [Compound 752, isopropyl 4-(6-{4-[(methylcarbamoyl)amino]phenyl}-4-morpholin-4-yl-1H-pyrazolo[3,4-d]pyrimidin-1-yl)piperidine-1-carboxylate] | 53
8 | O=C(Nc1ccccc1)Nc1ccc(-c2nc(N3CCOCC3)c3cnn(C4CCN(Cc5ccccc5)CC4)c3n2)cc1 [Example 257, 1-{4-[1-(1-benzylpiperidin-4-yl)-4-morpholin-4-yl-1H-pyrazolo[3,4-d]pyrimidin-6-yl]phenyl}-3-phenylurea] | 1100
9 | CONC(=O)Nc1ccc(-c2nc(N3CCOCC3)c3cnn(C4CCN(Cc5ccccc5)CC4)c3n2)cc1 [Compound 286, 1-{4-[1-(1-benzylpiperidin-4-yl)-4-morpholin-4-yl-1H-pyrazolo[3,4-d]pyrimidin-6-yl]phenyl}-3-methoxyurea] | 200
10 | CNC(=O)Cc1ccc(-c2nc(N3CCOCC3)c3cnn(C4CCN(Cc5ccccc5)CC4)c3n2)cc1 [Compound 616, 2-{4-[1-(1-benzylpiperidin-4-yl)-4-morpholin-4-yl-1H-pyrazolo[3,4-d]pyrimidin-6-yl]phenyl}-N-methylacetamide] | 10000
11 | O=C(Nc1ccc(-c2nc(N3CCOCC3)c3cnn(C4CCN(Cc5cccnc5)CC4)c3n2)cc1)OCCO [Compound 924, 2-hydroxyethyl (4-{4-morpholin-4-yl-1-[1-(pyridin-3-ylmethyl)piperidin-4-yl]-1H-pyrazolo[3,4-d]pyrimidin-6-yl}phenyl)carbamate] | 110
12 | CN1CCC(NC(=O)Nc2ccc(-c3nc(N4CCOCC4)c4cnn(C5CCN(Cc6ccccc6)CC5)c4n3)cc2)CC1 [Compound 272] | 1200
13 | CC(C)OC(=O)N1CCC(n2ncc3c(N4CCOCC4)nc(-c4ccc(NC(=O)NCCF)cc4)nc32)CC1 [Compound 833, isopropyl 4-[6-(4-{[(2-fluoroethyl)carbamoyl]amino}phenyl)-4-morpholin-4-yl-1H-pyrazolo[3,4-d]pyrimidin-1-yl]piperidine-1-carboxylate] | 250
14 | CNC(=O)Nc1ccc(-c2nc(N3CCOCC3)c3cnn(C4CCN(C(=O)OC)CC4)c3n2)cc1 [Compound 721, methyl 4-(6-{4-[(methylcarbamoyl)amino]phenyl}-4-morpholin-4-yl-1H-pyrazolo[3,4-d]pyrimidin-1-yl)piperidine-1-carboxylate] | 80
15 | COC(=O)N1CCC(n2ncc3c(N4CCOCC4)nc(-c4ccc(NC(=O)Nc5ccc(CCO)cc5)cc4)nc32)CC1 [Compound 913, methyl 4-{6-[4-({[4-(2-hydroxyethyl)phenyl]carbamoyl}amino)phenyl]-4-morpholin-4-yl-1H-pyrazolo[3,4-d]pyrimidin-1-yl}piperidine-1-carboxylate] | 1.3
16 | CONC(=O)Nc1ccc(-c2nc(N3CCOCC3)c3cnn(C4CCN(Cc5ccccc5)CC4)c3n2)cc1 [Compound 532, 1-{4-[1-(1-benzylpiperidin-4-yl)-4-morpholin-4-yl-1H-pyrazolo[3,4-d]pyrimidin-6-yl]phenyl}-3-methoxyurea] | 160
17 | CN1CCC(NC(=O)Nc2ccc(-c3nc(N4CCOCC4)c4cnn(C5CCN(Cc6ccccc6)CC5)c4n3)cc2)CC1 [Compound 517, 1-{4-[1-(1-benzylpiperidin-4-yl)-4-morpholin-4-yl-1H-pyrazolo[3,4-d]pyrimidin-6-yl]phenyl}-3-(1-methylpiperidin-4-yl)urea] | 1200
18 | O=C(Nc1ccc(-c2nc(N3CCOCC3)c3cnn(C4CCN(Cc5ccccc5)CC4)c3n2)cc1)NC1CC1 [Compound 556, 1-{4-[1-(1-benzylpiperidin-4-yl)-4-morpholin-4-yl-1H-pyrazolo[3,4-d]pyrimidin-6-yl]phenyl}-3-cyclopropylurea] | 1050
19 | CC(C)(C)OC(=O)N1CCC(n2ncc3c(N4CCOCC4)nc(-c4ccc(NC(=O)NC5CC5)cc4)nc32)CC1 [Compound 767, tert-butyl 4-(6-{4-[(cyclopropylcarbamoyl)amino]phenyl}-4-morpholin-4-yl-1H-pyrazolo[3,4-d]pyrimidin-1-yl)piperidine-1-carboxylate] | 700
20 | CCNC(=O)Nc1ccc(-c2nc(N3CCOCC3)c3cnn(C4CCN(Cc5ccccc5)CC4)c3n2)cc1 [Compound 499, 1-{4-[1-(1-benzylpiperidin-4-yl)-4-morpholin-4-yl-1H-pyrazolo[3,4-d]pyrimidin-6-yl]phenyl}-3-ethylurea] | 350
21 | CCNC(=O)Nc1ccc(-c2nc(N3CCOCC3)c3cnn(C4CCN(Cc5ccccc5)CC4)c3n2)cc1 [Example 253, 1-{4-[1-(1-benzylpiperidin-4-yl)-4-morpholin-4-yl-1H-pyrazolo[3,4-d]pyrimidin-6-yl]phenyl}-3-ethylurea] | 400
22 | COC(=O)N1CCC(n2ncc3c(N4CCOCC4)nc(-c4ccc(NC(=O)NC5CC5)cc4)nc32)CC1 [Compound 734, methyl 4-(6-{4-[(cyclopropylcarbamoyl)amino]phenyl}-4-morpholin-4-yl-1H-pyrazolo[3,4-d]pyrimidin-1-yl)piperidine-1-carboxylate] | 150
23 | CNC(=O)Nc1ccc(-c2nc(N3CCOCC3)c3cnn(C4CCN(C(=O)OC)CC4)c3n2)cc1 [Example 476, methyl 4-(6-{4-[(methylcarbamoyl)amino]phenyl}-4-morpholin-4-yl-1H-pyrazolo[3,4-d]pyrimidin-1-yl)piperidine-1-carboxylate] | 100
24 | COC(=O)Nc1ccc(-c2nc(N3CCOCC3)c3cnn(C4CCN(Cc5ccccc5)CC4)c3n2)cc1 [Example 154, methyl {4-[1-(1-benzylpiperidin-4-yl)-4-morpholin-4-yl-1H-pyrazolo[3,4-d]pyrimidin-6-yl]phenyl}carbamate] | 3000
25 | CNC(=O)Cc1ccc(-c2nc(N3CCOCC3)c3cnn(C4CCN(Cc5ccccc5)CC4)c3n2)cc1 [Compound 371, 2-{4-[1-(1-benzylpiperidin-4-yl)-4-morpholin-4-yl-1H-pyrazolo[3,4-d]pyrimidin-6-yl]phenyl}-N-methylacetamide] | 10000
26 | COC(=O)N1CCC(n2ncc3c(N4CCOCC4)nc(-c4ccc(NC(=O)Nc5ccccc5)cc4)nc32)CC1 [Compound 735, methyl 4-(6-{4-[(anilinocarbonyl)amino]phenyl}-4-morpholin-4-yl-1H-pyrazolo[3,4-d]pyrimidin-1-yl)piperidine-1-carboxylate] | 80
27 | COC(=O)N1CCC(n2ncc3c(N4CCOCC4)nc(-c4ccc(NC(=O)Nc5ccc(CCN6CCN(C)CC6)cc5)cc4)nc32)CC1 [Compound 917, methyl 4-(6-{4-[({4-[2-(4-methylpiperazin-1-yl)ethyl]phenyl}carbamoyl)amino]phenyl}-4-morpholin-4-yl-1H-pyrazolo[3,4-d]pyrimidin-1-yl)piperidine-1-carboxylate] | 60
28 | CN(C)NC(=O)Nc1ccc(-c2nc(N3CCOCC3)c3cnn(C4CCN(Cc5ccccc5)CC4)c3n2)cc1 [Compound 536, N-{4-[1-(1-benzylpiperidin-4-yl)-4-morpholin-4-yl-1H-pyrazolo[3,4-d]pyrimidin-6-yl]phenyl}-2,2-dimethylhydrazinecarboxamide] | 8000

Same assay, conditions: MDA468 cells, three days after drug treatment

Row | SMILES | IC50 [nM]
29 | CNC(=O)Nc1ccc(-c2nc(N3CCOCC3)c3cnn(C4CCN(C(=O)OC(C)(C)C)CC4)c3n2)cc1 [Compound 582, tert-butyl 4-(6-{4-[(methylcarbamoyl)amino]phenyl}-4-morpholin-4-yl-1H-pyrazolo[3,4-d]pyrimidin-1-yl)piperidine-1-carboxylate] | 210
30 | CNC(=O)Nc1ccc(-c2nc(N3CCOCC3)c3cnn(C4CCN(C(=O)OC)CC4)c3n2)cc1 [Compound 720, methyl 4-(6-{4-[(methylcarbamoyl)amino]phenyl}-4-morpholin-4-yl-1H-pyrazolo[3,4-d]pyrimidin-1-yl)piperidine-1-carboxylate] | 95
